Results reported in US11744870B2, “Traditional Chinese medicine composition for treating metabolic syndrome and preparations thereof” (JIANGSU JIUXU PHARMACEUTICAL CO., LTD., priority 2018, dated 2023).

Experiments:
Assay type in all cases: in vivo
[1] = system: KKAy mice with spontaneous type 2 diabetes; experiment: Hyperinsulinemic-euglycemic clamp in KKAy mice; conditions: after 54th day, SSBG 6.0 mmol/L, IIR 20.0 mU/kg/min, 150 mg/kg
Experimental: (§1) The female KKAy mice with spontaneous type 2 diabetes were fed with a diet dedicated for KKAy mice, with 5 mice in each cage. When the mice weighed over 40 g, prediction of a plurality of indexes such as blood glucose, blood lipid, and insulin resistance were performed. Based on fasting blood glucose, blood glucose reduction percentage within 40 min in an insulin tolerance test, blood triglyceride (TG), total cholesterol (TC), and weight, the mice were divided into 5 groups, with 12 mice in each group.
The KKAy mice with spontaneous type 2 diabetes were divided into 5 groups based on the following five indexes: blood glucose reduction percentage within 40 min in an insulin tolerance test, fasting blood glucose, blood TG, blood TC, and weight. […] The female C57BL/6J mice were used as a normal animal control group (Nor, underwent gavage with a equal volume of water, n=10). Gavage was performed once a day for 58 consecutive days, and After the 54th day of administration to the animals in each group, 5-6 mice were randomly selected from different groups to carry out a hyperinsulinemic-euglycemic clamp test each day.

[2] = system: KKAy mice with spontaneous type 2 diabetes; experiment: Fasting blood glucose, blood insulin and insulin sensitivity index in KKAy mice; conditions: 28th day, 150 mg/kg
Experimental: The KKAy mice with spontaneous type 2 diabetes were divided into 5 groups based on the following five indexes: blood glucose reduction percentage within 40 min in an insulin tolerance test, fasting blood glucose, blood TG, blood TC, and weight. […] Animals in the three dosage groups underwent gavage with 500, 1000, and 1500 mg/kg of the traditional Chinese medicine extract composition of the present invention respectively. […] Gavage was performed once a day for 58 consecutive days, and fasting blood glucose and blood insulin level were measured (ELISA method) at the same time when a glucose tolerance test was carried out on the animals in each group on the 28th day of administration, and an insulin sensitivity index (ISI) was calculated, wherein ISI=1/(FBGmg/dl×FBIng/ml).

[3] = system: KKAy mice with spontaneous type 2 diabetes; experiment: Glycosylated hemoglobin (HbA1c) level in KKAy mice; conditions: 48th day, 150 mg/kg
Experimental: as §1
The KKAy mice with spontaneous type 2 diabetes were divided into 5 groups based on the following five indexes: blood glucose reduction percentage within 40 min in an insulin tolerance test, fasting blood glucose, blood TG, blood TC, and weight. […] Animals in the three dosage groups underwent gavage with 500, 1000, and 1500 mg/kg of the traditional Chinese medicine extract composition of the present invention respectively. The female C57BL/6J mice were used as a normal animal control group (Nor, underwent gavage with a equal volume of water, n=10). Gavage was performed once a day for 58 consecutive days, and blood was collected from the tail tip on the 48th day to measure the glycosylated hemoglobin level.

[4] = system: KKAy mice with spontaneous type 2 diabetes; experiment: Serum triglyceride and total cholesterol in KKAy mice; conditions: 14th day, 150 mg/kg
Experimental: as §1
The KKAy mice with spontaneous type 2 diabetes were divided into 5 groups based on the following five indexes: blood glucose reduction percentage within 40 min in an insulin tolerance test, fasting blood glucose, blood TG, blood TC, and weight. […] The female C57BL/6J mice were used as a normal animal control group (Nor, underwent gavage with a equal volume of water, n=10). Gavage was performed once a day for 58 consecutive days, and at the same time when the animals in each group underwent an insulin tolerance test on the 14th day of administration, blood was collected to measure the serum triglyceride (TG) and total cholesterol (TC) levels.

[5] = system: C57BL/6J mice fed with a high-fat diet; experiment: Insulin tolerance test in C57BL/6J mice fed with a high-fat diet; conditions: 10th day, 150 mg/kg
Experimental: The male C57BL/6J mice were fed with a high-fat and high-nutrient diet, with 5 mice in each cage. When the mice weighed over 45 g, prediction of a plurality of indexes such as blood glucose, blood lipid, and insulin resistance were performed. Based on fasting blood glucose, blood glucose reduction percentage within 40 min in an insulin tolerance test, blood TG, blood TC, and weight, the mice were divided into 5 groups, with 12 mice in each group.
C57BL/6J mice fed a with high-fat diet and weighing more than 45 g were selected for multi-index prediction tests such as blood glucose, blood lipids, and insulin resistance, and were divided into 5 groups based on the following five indexes: blood glucose reduction percentage within 40 min in an insulin tolerance test, fasting blood glucose, blood TG, blood TC, and weight, with 12 mice in each group. […] Male C57BL/6J mice were used as a normal animal control group. Animals in the positive drug group and each test drug group underwent gavage with a corresponding dosage of the test drug each day. The normal control group and model group underwent gavage with an equal volume of water once a day for 30 days. Animals in each group underwent an insulin tolerance test on the 10th day of the administration. On the test day, the animals fasted for 4 hours (free to drink water), blood was collected from the tail tip (0 min), and then regular insulin (0.4 U/kg) was injected subcutaneously.

[6] = system: KKAy mice with spontaneous type 2 diabetes; experiment: Blood pressure of KKAy mice (non-invasive sphygmomanometer); conditions: 53rd day, 150 mg/kg
Experimental: The KKAy mice with spontaneous type 2 diabetes were divided into 5 groups based on the following five indexes: blood glucose reduction percentage within 40 min in an insulin tolerance test, fasting blood glucose, blood TG, blood TC, and weight. […] The female C57BL/6J mice were used as a normal animal control group (Nor, underwent gavage with a equal volume of water, n=10). Gavage was performed once a day for 58 consecutive days, and onOn the 53rd day of administration to the animals in each group, the blood pressure was measured by using an intelligent non-invasive sphygmomanometer (BP98A, Beijing Ruanlong Biotechnology Co., Ltd.).

CN(C)C(=N)N=C(N)N [Met, metformin]
GIR [1]: 14.5 ± 0.6 mg/kg · min
Blood insulin ([2]; ELISA): 36.3 ± 27.6 ng/mL
ISI ([2]; ISI=1/(FBGmg/dl×FBIng/ml)): 0.26 ± 0.16 ×10^−3
HbA1c [3]: 4.34 ± 0.83 %
Serum TC [4]: 243.8 ± 44.0 mg/dL
Serum TG [4]: 253.2 ± 172.6 mg/dL
Glu ([5]; 0 min): 104.5 ± 7.6 mg/dL
Glu ([5]; 40 min): 78.3 ± 10.3 mg/dL
Glu ([5]; 90 min): 87.5 ± 24.6 mg/dL
BP [6]: 118.7 ± 10.8 mmHG
